Columns and labels:
[1] = molecular target: human SOS1 (loading of human K-Ras^G12C-GDP with fluorescent GTP-analog) (Homo sapiens, UniProt Q07889); assay: Biochemical assay 3: K-Ras^G12C activation assay by hSOS1 (HTRF); conditions: no GTP; read-out: Assay 3 (KRAS-Activation by SOS no GTP) activity expressed as IC50
[2] = molecular target: Epidermal Growth Factor Receptor (EGFR) (Homo sapiens (Human), UniProt P00533); assay: EGFR kinase assay (TR-FRET); assay type: biochemical; conditions: values given in μM; read-out: EGFR kinase inhibition IC50
Epidermal Growth Factor Receptor (EGFR), sequence (P00533 25-1210): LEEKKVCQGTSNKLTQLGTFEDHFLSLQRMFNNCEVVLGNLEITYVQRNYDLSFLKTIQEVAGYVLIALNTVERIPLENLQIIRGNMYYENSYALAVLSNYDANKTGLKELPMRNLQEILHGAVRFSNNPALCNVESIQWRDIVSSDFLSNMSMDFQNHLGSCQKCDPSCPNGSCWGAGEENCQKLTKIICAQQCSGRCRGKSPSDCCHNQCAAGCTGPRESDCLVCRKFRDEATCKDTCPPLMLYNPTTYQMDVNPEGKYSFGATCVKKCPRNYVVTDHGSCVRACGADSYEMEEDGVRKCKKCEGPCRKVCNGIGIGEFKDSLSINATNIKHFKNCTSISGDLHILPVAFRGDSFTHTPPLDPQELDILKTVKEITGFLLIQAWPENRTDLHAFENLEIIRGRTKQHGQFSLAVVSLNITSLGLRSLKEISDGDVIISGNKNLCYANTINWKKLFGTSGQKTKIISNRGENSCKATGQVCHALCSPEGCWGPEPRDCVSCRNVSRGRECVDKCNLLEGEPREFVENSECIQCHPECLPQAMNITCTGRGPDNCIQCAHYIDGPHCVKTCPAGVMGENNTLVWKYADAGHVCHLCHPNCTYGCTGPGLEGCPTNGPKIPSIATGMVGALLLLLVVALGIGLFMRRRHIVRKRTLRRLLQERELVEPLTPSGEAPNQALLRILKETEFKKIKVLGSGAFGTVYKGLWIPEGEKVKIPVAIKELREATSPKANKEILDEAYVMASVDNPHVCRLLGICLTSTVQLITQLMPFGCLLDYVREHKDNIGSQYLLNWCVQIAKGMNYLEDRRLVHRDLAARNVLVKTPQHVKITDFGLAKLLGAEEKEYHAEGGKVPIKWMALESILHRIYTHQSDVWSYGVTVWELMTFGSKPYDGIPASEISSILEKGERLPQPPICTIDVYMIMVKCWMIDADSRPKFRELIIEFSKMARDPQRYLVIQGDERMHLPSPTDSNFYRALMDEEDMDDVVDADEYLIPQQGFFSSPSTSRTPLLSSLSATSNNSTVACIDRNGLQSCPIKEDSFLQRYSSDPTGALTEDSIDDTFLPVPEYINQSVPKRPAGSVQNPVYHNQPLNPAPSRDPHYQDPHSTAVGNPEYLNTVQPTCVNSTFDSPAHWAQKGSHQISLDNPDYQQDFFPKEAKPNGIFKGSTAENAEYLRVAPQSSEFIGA
Method in brief: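 Read-out is the 665/620 nm HTRF ratio, from a Tb-cryptate anti-phosphotyrosine antibody and streptavidin-XL665 bound to phosphorylated biotin-peptide substrate. The enzyme, A431-derived EGFR (~3 U/ml), was given 15 min compound pre-binding at 22° C in Hepes pH 7.0 with Mg2+/Mn2+ before reaction.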

COc1cc2nc(C)nc(NC(C)c3ccc(-c4ccccc4CNCc4ccccc4)s3)c2cc1OC (stereo not drawn) [Example 365, N-[1-(5-{2-[(benzylamino)methyl]phenyl}thiophen-2-yl)ethyl]-6,7-dimethoxy-2-methylquinazolin-4-amine]
IC50 [1]: 353 nM | IC50 [2]: > 20 µM

CCCCNCc1ccccc1-c1ccc(C(C)Nc2nc(C)nc3cc(OC)c(OC)cc23)s1 (stereo not drawn) [Example 366, N-[1-(5-{2-[(butylamino)methyl]phenyl}thiophen-2-yl)ethyl]-6,7-dimethoxy-2-methylquinazolin-4-amine]
IC50 [1]: 136 nM | IC50 [2]: > 20 µM

CCNCc1ccccc1-c1ccc(C(C)Nc2nc(C)nc3cc(OC)c(OC)cc23)s1 (stereo not drawn) [Example 367, N-[1-(5-{2-[(ethylamino)methyl]phenyl}thiophen-2-yl)ethyl]-6,7-dimethoxy-2-methylquinazolin-4-amine]
IC50 [1]: 99 nM | IC50 [2]: > 20 µM

Source: patent US20240083857A1, “2-Methyl-Quinazolines” (Bayer Pharma Aktiengesellschaft, priority 2017, published 2024)
